Experimental findings from patent US11459331B2, “Chemical compounds” (Avista Pharma Solutions, Inc., priority 2019, dated 2022) are described below.

T1 sequence (P35408 whole entry): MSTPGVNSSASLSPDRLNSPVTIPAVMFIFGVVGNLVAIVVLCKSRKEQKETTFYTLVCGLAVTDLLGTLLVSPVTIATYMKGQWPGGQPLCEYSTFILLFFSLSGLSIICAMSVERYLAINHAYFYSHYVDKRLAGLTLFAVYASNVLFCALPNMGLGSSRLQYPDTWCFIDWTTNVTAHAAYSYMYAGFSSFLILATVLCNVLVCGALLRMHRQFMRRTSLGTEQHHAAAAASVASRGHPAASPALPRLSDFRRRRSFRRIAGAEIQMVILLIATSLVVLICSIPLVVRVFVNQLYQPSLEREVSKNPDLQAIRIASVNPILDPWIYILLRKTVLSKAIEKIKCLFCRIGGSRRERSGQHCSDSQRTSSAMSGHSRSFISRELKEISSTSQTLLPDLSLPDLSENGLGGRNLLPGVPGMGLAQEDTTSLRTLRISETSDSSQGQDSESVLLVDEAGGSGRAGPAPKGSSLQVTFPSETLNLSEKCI

This assay addresses T1, human EP4 receptor (Homo sapiens, UniProt P35408).
T1 construct: Eurofins Cerep
In words: human EP4 receptor antagonist screen (Eurofins Cerep; cAMP HTRF, PGE2 30 nM stimulus, CHO cells). The class given is cell-based. As to conditions: at 100 nM, EP4(h) antagonist effect, human recombinant (CHO cells), 10 min RT, read-out: % inhibition of control reference agonist response (PGE2). As for the experimental part: Compounds were assayed at Eurofins Cerep using the human EP4 receptor antagonist screen. Cellular antagonist effect was calculated as a % inhibition of control reference agonist response for each target (PGE2). In each EP4(h) experiment, a reference antagonist compound, GW627368X, was tested concurrently with the test compounds, and the data were compared with historical values determined at Eurofins. The experiments were accepted in accordance with Eurofins validation Standard Operating Procedure.
For orientation: Time-resolved FRET reads energy transfer from a long-lived donor to a nearby acceptor.
For the molecule `CCc1nc2c(C)nc(-c3ccncc3)cn2c1-c1ccc(CCNC(=O)NS(=O)(=O)c2ccc(C)cc2)cc1` [Compound 13, 1-[2-[4-[2-ethyl-8-methyl-6-(4-pyridyl)imidazo[1,2-a]pyrazin-3-yl]phenyl]ethyl]-3-(p-tolylsulfonyl)urea], the inhibition at 0.1 µM was at least 50%.

`CCc1nc2c(C)nc(C)cn2c1-c1ccc(CCNC(=O)NS(=O)(=O)c2ccc(Cl)cc2)cc1` [Compound 1, 1-(4-chlorophenyl)sulfonyl-3-[2-[4-(2-ethyl-6,8-dimethyl-imidazo[1,2-a]pyrazin-3-yl)phenyl]ethyl]urea]: the inhibition at 0.1 µM is at least 50%.

For the molecule `Cc1ccc(S(=O)(=O)NC(=O)NCCc2ccc(-c3c(-c4ccon4)nc4c(C)nc(C)cn34)cc2)cc1` [Compound 15, 1-[2-[4-(2-isoxazol-3-yl-6,8-dimethyl-imidazo[1,2-a]pyrazin-3-yl)phenyl]ethyl]-3-(p-tolylsulfonyl)urea], the inhibition at 0.1 µM is at least 50%.

`CCc1nc2c(C)nc(C)cn2c1-c1ccc(CCNC(=O)NS(=O)(=O)c2ccccc2C)cc1` [Compound 2, 1-[2-[4-(2-ethyl-6,8-dimethyl-imidazo[1,2-a]pyrazin-3-yl)phenyl]ethyl]-3-(o-tolylsulfonyl)urea]: the inhibition at 0.1 µM is at least 50%.

A word on the inhibition: it is how much of the control response was suppressed.
